In patent US10125121B2, “FYN kinase inhibitors” (ROTTAPHARM BIOTECH S.R.L., priority 2015, dated 2018):

What was measured:
[1] = biological target: active FYN (human recombinant, 62.7 kDa) (Homo sapiens, UniProt P06241); test: In vitro kinase assay (Z′-LYTE FRET); type: biochemical; conditions: read-out: IC50(nM) FYN INHIBITION
Experimental: Assays to determine the kinase inhibitory activity of compounds were performed using an automatic liquid handling device (Microlab STAR Hamilton) and Z′-LYTE™ Kinase Assay Platform, a Fluorescence Resonance Energy Transfer (FRET)-based assay platform compatible with high-throughput screening (HTS) applications. The assay employs a fluorescence-based, coupled-enzyme format and utilizes the differential sensitivity of phosphorylated and non-phosphorylated peptides to proteolytic cleavage.
All reagents were diluted in reaction buffer and the kinase reaction was carried out in a total volume of 10 μl, for 60 minutes at 25° C. The 0% Phosphorylation (i.e. no ATP) and 100% Phosphorylation (i.e. synthetically phosphorylated peptide supplied) Assay Controls, included in each plate, allowed to calculate the percent phosphorylation achieved in the specific reaction well. The 0% Inhibition and 0% Phosphorylation (i.e. 100% Inhibition) Controls define the dynamic range in the screen. At the end of incubation, a secondary reaction (the Development Reaction) started by adding 5 μl of Development Reagent, containing a site-specific protease that recognizes and cleaves non-phosphorylated peptides, and was interrupted after 60 minutes with 5 μl/sample of Stop Reagent.
The compounds were tested in a range of concentrations 10^−6-10^−9 M.
Results are expressed as percentage of inhibition and the IC50 values were calculated by non-linear curve fitting using GraphPad™ Prism software.

[2] = system: NF-kB activation in JB6 CI 41-5a (P+) cells; test: Gene reporter (GR) assay, NF-kB luciferase after TNFα stimulation; type: cell-based, murine; conditions: Mus musculus; 1 h pre-treatment, 2 ng/ml TNFα for 4 h; read-out: IC50(nM) GR Inhibition
Text: To determine if the compounds of the invention were active also in a cellular model, a gene reporter assay was established in a cell line (JB6 CI 41-5a (P+)) know to activate Fyn kinase via an inflammatory stimuli (TNFα). GR assay measures the activation of the nuclear transcription factor NF-kB, situated down-stream the Fyn activation pathway. Products active in this analysis has to penetrate in the cell and inhibit the activation pathway of NF-kB.
The murine epithelial cell line JB6 CI 41-5a (P+) (ATCC® Cat. # CRL-2010) was stably transfected with the pGL4.32[luc2P/NFkB-RE/Hygro] vector (Promega). Clonal selection was achieved by limiting dilution in MEM (+Earle's BSS+1.5 g/l sodium bicarbonate+0.1 mM NEAA)+GlutaMAX™-I, +1 mM sodium pyruvate, +5% FBS+80 μg/ml Hygromycin B. The clones were tested for their response to TNFα stimulus. The obtained transfected cells (JB6(P+) NFkB-RE-luc2P T3-C10) contained a firefly luciferase gene (luc2P) under the control of minimal TATA promoter with multiple Nuclear Factor-kB response elements (NFkB-REs). These NFkB-REs are DNA binding sequences for the NF-kB transcription factor.
JB6(P+) NFkB-RE-luc2P T3-C10 cells were used for the analysis of NF-kB activity modulation, after TNFα stimulation, by Fyn-inhibitors (Hwang et al.; Biochem. Pharmacol. 2009, 77 (7):1213-22).
6000 cells/well were plated in a 96× well plate. After 24 h new medium without antibiotics was given. After further 24 h the cells were pre-treated with the different compounds for 1 h and then stimulated with 2 ng/ml TNFα for 4 h. In each experiments two positive standards were always used, and each tested condition was analyzed in quadruplicate.
The luciferase analysis was performed with ONE-Glo™+ToxLuciferase Reporter and Cell Viability Assay kit (Promega). This assay combined luciferase assay chemistry with a cell viability marker to better understand reporter gene expression in the context of cell health. The assay uses a two-step process. The first part of the assay was a non-lytic fluorescence assay (CellTiter-Fluor™ Cell Viability Assay) that measured the relative number of live cells in a culture population, as it measures a conserved and constitutive protease activity within live cells. The live-cell protease activity was restricted to intact viable cells and was measured using a fluorogenic, cell-permeant peptide substrate (glycyl-phenylalanyl-aminofluorocoumarin; GF-AFC). The generated fluorescent signal, proportional to the number of living cells, was measured with EnVision microplate reader (PerkinElmer) using an excitation wavelength of 400 nm and emission wavelength of 500 nm.
The second part of the assay uses the ONE-Glo™ Luciferase Assay System to quantify firefly luciferase reporter gene expression. The ONE-Glo™ Assay contained a fluoro-luciferin substrate, more tolerant to sample components than standard luciferase assay reagents. Luminescence was measured with EnVision microplate reader (PerkinElmer).
Compounds of Formula (I) were tested for their capacity to penetrate into the cell and inhibit the activation pathway of NF-kB.

Chain of active FYN (human recombinant, 62.7 kDa) (P06241 whole entry): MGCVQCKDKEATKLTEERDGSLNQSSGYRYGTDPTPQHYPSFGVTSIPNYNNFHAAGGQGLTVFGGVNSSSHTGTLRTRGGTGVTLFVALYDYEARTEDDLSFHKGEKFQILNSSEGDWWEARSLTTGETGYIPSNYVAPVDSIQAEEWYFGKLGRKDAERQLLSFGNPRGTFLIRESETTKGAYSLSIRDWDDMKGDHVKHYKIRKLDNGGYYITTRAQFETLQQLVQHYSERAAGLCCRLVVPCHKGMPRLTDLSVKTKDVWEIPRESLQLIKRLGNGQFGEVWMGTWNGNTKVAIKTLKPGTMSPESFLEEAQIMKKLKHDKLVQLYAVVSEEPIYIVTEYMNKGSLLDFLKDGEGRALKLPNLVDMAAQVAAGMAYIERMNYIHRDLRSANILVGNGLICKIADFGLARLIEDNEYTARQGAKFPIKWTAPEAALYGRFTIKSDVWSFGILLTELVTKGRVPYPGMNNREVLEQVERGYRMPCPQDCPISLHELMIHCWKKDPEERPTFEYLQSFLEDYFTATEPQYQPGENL

Row | Structure (SMILES) | IC50 [1] | IC50 [2]
1 | O=C(Nc1ccc(CN2CCN(c3nccc(Nc4cc(C5CC5)[nH]n4)n3)CC2)cc1)c1c(F)cccc1C(F)(F)F [Compound 13, N-(4-((4-(4-((5-cyclopropyl-1H-pyrazol-3-yl)amino)pyrimidin-2-yl)piperazin-1-yl)methyl)phenyl)-2-fluoro-6-(trifluoromethyl)benzamide] | 23 nM | 493 nM
2 | Cc1cc(CN2CCN(c3nccc(Nc4cc(C5CC5)[nH]n4)n3)CC2)ccc1NC(=O)c1ccccc1F [Compound 17, N-(4-((4-(4-((5-cyclopropyl-1H-pyrazol-3-yl)amino)pyrimidin-2-yl)piperazin-1-yl)methyl)-2-methylphenyl)-2-fluorobenzamide] | 30 nM | > 2000 nM
3 | CCc1cc(CN2CCN(c3nc(C)cc(Nc4cc(C5CC5)[nH]n4)n3)CC2)ccc1NC(=O)c1ccccc1F [Compound 18, N-(4-((4-(4-((5-cyclopropyl-1H-pyrazol-3-yl)amino)-6-methylpyrimidin-2-yl)piperazin-1-yl)methyl)-2-ethylphenyl)-2-fluorobenzamide] | 94 nM | 1370 nM
4 | Cc1nc(C(=O)Nc2ccc(CN3CCN(c4nccc(Nc5cc(C6CC6)[nH]n5)n4)CC3)cc2)c(C(F)(F)F)o1 [Compound 21, N-(4-((4-(4-((5-cyclopropyl-1H-pyrazol-3-yl)amino)pyrimidin-2-yl)piperazin-1-yl)methyl)phenyl)-2-methyl-5-(trifluoromethyl)oxazole-4-carboxamide] | 42 nM | 854 nM
5 | Cc1nocc1C(=O)Nc1ccc(CN2CCN(c3nccc(Nc4cc(C5CC5)[nH]n4)n3)CC2)cc1 [Compound 23, N-(4-((4-(4-((5-cyclopropyl-1H-pyrazol-3-yl)amino)pyrimidin-2-yl)piperazin-1-yl)methyl)phenyl)-3-methylisoxazole-4-carboxamide] | 103 nM | 1930 nM
6 | O=C(Nc1ccc(CN2CCN(c3nccc(Nc4cc(C5CC5)[nH]n4)n3)CC2)cc1)c1cccnc1C(F)(F)F [Compound 27, N-(4-((4-(4-((5-cyclopropyl-1H-pyrazol-3-yl)amino)pyrimidin-2-yl)piperazin-1-yl)methyl)phenyl)-2-(trifluoromethyl)-nicotinamide] | 27 nM | 1340 nM
7 | O=C(Nc1ccc(CN2CCN(c3nccc(Nc4cc(C5CC5)[nH]n4)n3)CC2)cc1)c1nccnc1C(F)(F)F [Compound 36, N-(4-((4-(4-((5-cyclopropyl-1H-pyrazol-3-yl)amino)pyrimidin-2-yl)piperazin-1-yl)methyl)phenyl)-3-(trifluoromethyl)-pyrazine-2-carboxamide] | 8 nM | > 2000 nM
8 | O=C(Nc1cnc(CN2CCN(c3nccc(Nc4cc(C5CC5)[nH]n4)n3)CC2)cn1)c1ccccc1C(F)(F)F [Compound 41, N-(5-((4-(4-((5-cyclopropyl-1H-pyrazol-3-yl)amino)pyrimidin-2-yl)piperazin-1-yl)methyl)pyrazin-2-yl)-2-(trifluoromethyl)benzamide] | 4 nM | > 2000 nM
9 | CC1CCCN1C(=O)Nc1ccc(CN2CCN(c3nccc(Nc4cc(C5CC5)[nH]n4)n3)CC2)cc1 (stereo not drawn) [Compound 48, N-(4-((4-(4-((5-cyclopropyl-1H-pyrazol-3-yl)amino)pyrimidin-2-yl)piperazin-1-yl)methyl)phenyl)-2-methylpyrrolidine-1-carboxamide] | 37 nM | –
10 | O=C(Nc1ccc(CN2CCN(c3nccc(Nc4cc(C5CC5)[nH]n4)n3)CC2)cc1)NC1CCCC1 [Compound 49, 1-cyclopentyl-3-(4-((4-(4-((3-cyclopropyl-1H-pyrazol-5-yl)amino)pyrimidin-2-yl)piperazin-1-yl)methyl)phenyl)urea] | 69 nM | –

Second part, the compound after the results:

Row | IC50 [1] | IC50 [2] | Structure (SMILES)
11 | 17 nM | 788 nM | Cc1ccccc1C(=O)Nc1ccc(CN2CCN(c3nccc(Nc4cc(C5CC5)[nH]n4)n3)CC2)cc1 [Compound 4, N-(4-((4-(4-((5-cyclopropyl-1H-pyrazol-3-yl)amino)pyrimidin-2-yl)piperazin-1-yl)methyl)phenyl)-2-methylbenzamide]
12 | 39 nM | 766 nM | O=C(Nc1ccc(CN2CCN(c3nccc(Nc4cc(C5CC5)[nH]n4)n3)CC2)cc1)c1ccccc1OC(F)(F)F [Compound 8, N-(4-((4-(4-((5-cyclopropyl-1H-pyrazol-3-yl)amino)pyrimidin-2-yl)piperazin-1-yl)methyl)phenyl)-2-(trifluoromethoxy)benzamide]
13 | 29 nM | 430 nM | O=C(Nc1ccc(CN2CCN(c3nccc(Nc4cc(C5CC5)[nH]n4)n3)CC2)cc1)c1cccc(F)c1C(F)(F)F [Compound 12, N-(4-((4-(4-((5-cyclopropyl-1H-pyrazol-3-yl)amino)pyrimidin-2-yl)piperazin-1-yl)methyl)phenyl)-3-fluoro-2-(trifluoromethyl)benzamide]
14 | 16 nM | 603 nM | O=C(Nc1ccc(CN2CCN(c3nccc(Nc4cc(C5CC5)[nH]n4)n3)CC2)cc1)c1ccc(F)cc1C(F)(F)F [Compound 14, N-(4-((4-(4-((5-cyclopropyl-1H-pyrazol-3-yl)amino)pyrimidin-2-yl)piperazin-1-yl)methyl)phenyl)-4-fluoro-2-(trifluoromethyl)benzamide]
15 | 8 nM | 973 nM | O=C(Nc1ccc(CN2CCN(c3nccc(Nc4cc(C5CC5)[nH]n4)n3)CC2)cc1)c1cnccc1C(F)(F)F [Compound 29, N-(4-((4-(4-((5-cyclopropyl-1H-pyrazol-3-yl)amino)pyrimidin-2-yl)piperazin-1-yl)methyl)phenyl)-4-(trifluoromethyl)-nicotinamide]
16 | 17 nM | 1000 nM | O=C(Nc1ccc(CN2CCN(c3nccc(Nc4cc(C5CC5)[nH]n4)n3)CC2)cc1)c1ccncc1C(F)(F)F [Compound 32, N-(4-((4-(4-((5-cyclopropyl-1H-pyrazol-3-yl)amino)pyrimidin-2-yl)piperazin-1-yl)methyl)phenyl)-3-(trifluoromethyl)-isonicotinamide]
17 | 441 nM | – | COc1ccnc(Nc2ccnc(N3CCN(Cc4ccc(NC(=O)c5ccccc5C(F)(F)F)cc4)CC3)n2)c1 [Compound 45, N-(4-((4-(4-((4-methoxypyridin-2-yl)amino)pyrimidin-2-yl)piperazin-1-yl)methyl)phenyl)-2-(trifluoromethyl)benzamide]
18 | 29 nM | – | Cc1cc(Nc2cc(C3CC3)n[nH]2)nc(N2CCN(Cc3ccc(NC(=O)c4ccccc4C(F)(F)F)cc3)CC2)n1 [Compound 46, N-(4-((4-(4-((5-cyclopropyl-1H-pyrazol-3-yl)amino)-6-methylpyrimidin-2-yl)piperazin-1-yl)methyl)phenyl)-2-(trifluoromethyl)benzamide]
19 | 41 nM | – | Cc1cc(Nc2ccnc(N3CCN(Cc4ccc(NC(=O)c5ccccc5C(F)(F)F)cc4)CC3)n2)[nH]n1 [Compound 47, N-(4-((4-(4-((3-methyl-1H-pyrazol-5-yl)amino)pyrimidin-2-yl)piperazin-1-yl)methyl)phenyl)-2-(trifluoromethyl)benzamide]
